Measured values from US20170210723A1, “MOLECULES HAVING PESTICIDAL UTILITY, AND INTERMEDIATES, COMPOSITIONS, AND PROCESSES, RELATED THERETO” (priority 2016, published 2017).

Key:
[1] = test system: Beet Armyworm (Spodoptera exigua); experiment: Bioassays on BAW, 128-well diet tray assay; assay type: in vivo; conditions: Spodoptera exigua, 168 h; 50 μg/cm^2 on artificial diet, second instar larvae, five to seven days; read-out: BAW % Control (or Mortality) rating
Method: Bioassays on BAW were conducted using a 128-well diet tray assay. One to five second instar BAW larvae were placed in each well (3 mL) of the diet tray that had been previously filled with 1 mL of artificial diet to which 50 μg/cm^2 of the test molecule (dissolved in 50 μL of 90:10 acetone-water mixture) had been applied (to each of eight wells) and then allowed to dry. Trays were covered with a clear self-adhesive cover and held at 25° C., 14:10 light-dark for five to seven days. Percent mortality was recorded for the larvae in each well; activity in the eight wells was then averaged. The results are indicated in the table entitled “Table ABC: Biological Results” (See Table Section).
(§1) Bioassays on BAW and CL were conducted according to the procedures outlined in Example A: Bioassays on Beet Armyworm (“BAW”) and Cabbage Looper (“CL”) using the indicated concentrations.

[2] = test system: Cabbage Looper (Trichoplusia ni); experiment: Bioassays on CL, 128-well diet tray assay; assay type: in vivo; conditions: Trichoplusia ni, 168 h; 50 μg/cm^2 on artificial diet, second instar larvae, five to seven days; read-out: CL % Control (or Mortality) rating
Method: Bioassays on CL were conducted using a 128-well diet tray assay.
One to five second instar CL larvae were placed in each well (3 mL) of the diet tray that had been previously filled with 1 mL of artificial diet to which 50 μg/cm^2 of the test molecule (dissolved in 50 μL of 90:10 acetone-water mixture) had been applied (to each of eight wells) and then allowed to dry. Trays were covered with a clear self-adhesive cover and held at 25° C., 14:10 light-dark for five to seven days. Percent mortality was recorded for the larvae in each well; activity in the eight wells was then averaged. The results are indicated in the table entitled “Table ABC: Biological Results” (See Table Section).
as §1

SMILES	mortality at 50 µg/cm2 [1]	mortality at 50 µg/cm2 [2]
CC(C)[S+]([O-])C[C@@H](C)NC(=O)c1ccc(/C=C/C(c2cc(Cl)c(Cl)c(Cl)c2)C(F)(F)F)cc1C(F)(F)F (stereo partly drawn) [F82, N-((2R)-1-(Isopropylsulfinyl)propan-2-yl)-4-((E)-4,4,4-trifluoro-3-(3,4,5-trichlorophenyl)but-1-en-1-yl)-2-(trifluoromethyl)benzamide]	50 to 100%	50 to 100%
O=C(NCC1(SCC(F)(F)F)COC1)c1ccc(/C=C/C(c2cc(Cl)c(Cl)c(Cl)c2)C(F)(F)F)cc1C(F)(F)F (centres unmarked) [F83, (E)-4-(4,4,4-Trifluoro-3-(3,4,5-trichlorophenyl)but-1-en-1-yl)-N-((3-((2,2,2-trifluoroethyl)thio)oxetan-3-yl)methyl)-2-(trifluoromethyl)benzamide]	50 to 100%	50 to 100%
C[C@H](CS(=O)(=O)CC(F)(F)F)NC(=O)c1ccc(/C=C/C(c2cc(Cl)c(Cl)c(Cl)c2)C(C)(F)F)cc1C(F)(F)F (stereo partly drawn) [F84, 4-((E)-4,4-Difluoro-3-(3,4,5-trichlorophenyl)pent-1-en-1-yl)-N—((R)-1-((2,2,2-trifluoroethyl)sulfonyl)propan-2-yl)-2-(trifluoromethyl)benzamide]	50 to 100%	50 to 100%
O=C(NCC1([S+]([O-])CC(F)(F)F)COC1)c1ccc(/C=C/C(c2cc(Cl)c(Cl)c(Cl)c2)C(F)(F)F)cc1C(F)(F)F (centres unmarked) [F107, (E)-4-(4,4,4-Trifluoro-3-(3,4,5-trichlorophenyl)but-1-en-1-yl)-N-((3-((2,2,2-trifluoroethyl)sulfinyl)oxetan-3-yl)methyl)-2-(trifluoromethyl)benzamide]	50 to 100%	50 to 100%
C[C@H](CSCC(F)(F)F)NC(=O)c1ccc(/C=C/C(c2cc(Cl)c(Cl)c(Cl)c2)C(C)(F)F)cc1C(F)(F)F (stereo partly drawn) [F108, 4-((E)-4,4-Difluoro-3-(3,4,5-trichlorophenyl)pent-1-en-1-yl)-N—((R)-1-((2,2,2-trifluoroethyl)thio)propan-2-yl)-2-(trifluoromethyl)benzamide]	50 to 100%	50 to 100%
C[C@H](CS(=O)(=O)CC(F)(F)F)NC(=O)c1ccc(/C=C/C(c2cc(Cl)c(Cl)c(Br)c2)C(F)(F)F)cc1C(F)(F)F (stereo partly drawn) [F114, 4-((E)-3-(3-Bromo-4,5-dichlorophenyl)-4,4,4-trifluorobut-1-en-1-yl)-N—((R)-1-((2,2,2-trifluoroethyl)sulfonyl)propan-2-yl)-2-(trifluoromethyl)benzamide]	50 to 100%	50 to 100%
C=Cc1cc(C(/C=C/c2ccc(C(=O)N[C@H](C)CS(=O)(=O)CC(F)(F)F)c(C(F)(F)F)c2)C(F)(F)F)cc(Cl)c1Cl (stereo partly drawn) [F115, 4-((E)-3-(3,4-Dichloro-5-vinylphenyl)-4,4,4-trifluorobut-1-en-1-yl)-N—((R)-1-((2,2,2-trifluoroethyl)sulfonyl)propan-2-yl)-2-(trifluoromethyl)benzamide]	50 to 100%	50 to 100%
C[C@H](CSCC(F)(F)F)NC(=O)c1ccc(/C=C/C(c2cc(Cl)c(Cl)c(Br)c2)C(F)(F)F)cc1C(F)(F)F (stereo partly drawn) [F116, 4-((E)-3-(3-Bromo-4,5-dichlorophenyl)-4,4,4-trifluorobut-1-en-1-yl)-N—((R)-1-((2,2,2-trifluoroethyl)thio)propan-2-yl)-2-(trifluoromethyl)benzamide]	50 to 100%	50 to 100%
C[C@H](C[S+]([O-])CC(F)(F)F)NC(=O)c1ccc(/C=C/C(c2ccc(Cl)c(Cl)c2)C(F)(F)F)cc1Br (stereo partly drawn) [F117, 2-Bromo-4-((E)-3-(3,4-dichlorophenyl)-4,4,4-trifluorobut-1-en-1-yl)-N-((2R)-1-((2,2,2-trifluoroethyl)sulfinyl)propan-2-yl)benzamide]	50 to 100%	50 to 100%
C[C@H](CS(=O)(=O)CC(F)(F)F)NC(=O)c1ccc(/C=C/C(c2cc(Br)cc(OCC(F)(F)F)c2)C(C)(F)F)cc1C(F)(F)F (stereo partly drawn) [F120, 4-((E)-3-(3-Bromo-5-(2,2,2-trifluoroethoxy)phenyl)-4,4-difluoropent-1-en-1-yl)-N—((R)-1-((2,2,2-trifluoroethyl)sulfonyl)propan-2-yl)-2-(trifluoromethyl)benzamide]	50 to 100%	50 to 100%
C[C@H](C[S+]([O-])CCF)NC(=O)c1ccc(/C=C/C(c2cc(Cl)c(Cl)c(Cl)c2)C(C)(F)F)cc1C(F)(F)F (stereo partly drawn) [F121, 4-((E)-4,4-Difluoro-3-(3,4,5-trichlorophenyl)pent-1-en-1-yl)-N-((2R)-1-((2-fluoroethyl)sulfinyl)propan-2-yl)-2-(trifluoromethyl)benzamide]	50 to 100%	50 to 100%
C[C@H](CS(=O)(=O)CCF)NC(=O)c1ccc(/C=C/C(c2cc(Cl)c(Cl)c(Cl)c2)C(C)(F)F)cc1C(F)(F)F (stereo partly drawn) [F122, 4-((E)-4,4-Difluoro-3-(3,4,5-trichlorophenyl)pent-1-en-1-yl)-N—((R)-1-((2-fluoroethyl)sulfonyl)propan-2-yl)-2-(trifluoromethyl)benzamide]	50 to 100%	50 to 100%
C[C@H](CS(=O)(=O)CC(F)(F)F)NC(=O)c1ccc(/C=C/C(c2ccc(C(F)(F)F)c(F)c2)C(C)(F)F)cc1C(F)(F)F (stereo partly drawn) [F123, 4-((E)-4,4-Difluoro-3-(3-fluoro-4-(trifluoromethyl)phenyl)pent-1-en-1-yl)-N—((R)-1-((2,2,2-trifluoroethyl)sulfonyl)propan-2-yl)-2-(trifluoromethyl)benzamide]	50 to 100%	50 to 100%
C[C@H](CS(=O)(=O)CC(F)(F)F)NC(=O)c1ccc(/C=C/C(c2ccc(Cl)c(Cl)c2)C(F)(F)F)cc1Br (stereo partly drawn) [F124, 2-Bromo-4-((E)-3-(3,4-dichlorophenyl)-4,4,4-trifluorobut-1-en-1-yl)-N—((R)-1-((2,2,2-trifluoroethyl)sulfonyl)propan-2-yl)benzamide]	50 to 100%	50 to 100%
CC(F)(F)C(/C=C/c1ccc(C(=O)NCC[S+]([O-])CCF)c(C(F)(F)F)c1)c1cc(Cl)c(Cl)c(Cl)c1 (centres unmarked) [F129, (E)-4-(4,4-Difluoro-3-(3,4,5-trichlorophenyl)pent-1-en-1-yl)-N-(2-((2-fluoroethyl)sulfinyl)ethyl)-2-(trifluoromethyl)benzamide]	50 to 100%	50 to 100%
C[C@H](CS(=O)(=O)CC(F)(F)F)NC(=O)c1ccc(/C=C/C(c2cc(Cl)c(Cl)c(Cl)c2)C(C)(F)F)cc1Br (stereo partly drawn) [F130, 2-bromo-4-((E)-4,4-difluoro-3-(3,4,5-trichlorophenyl)pent-1-en-1-yl)-N—((R)-1-((2,2,2-trifluoroethyl)sulfonyl)propan-2-yl)benzamide]	50 to 100%	50 to 100%
C[C@H](CS(=O)(=O)CC(F)(F)F)NC(=O)c1ccc(/C=C/C(c2cc(Cl)cc(Cl)c2)C(C)(F)F)cc1Br (stereo partly drawn) [F133, 2-Bromo-4-((E)-3-(3,5-dichlorophenyl)-4,4-difluoropent-1-en-1-yl)-N—((R)-1-((2,2,2-trifluoroethyl)sulfonyl)propan-2-yl)benzamide]	50 to 100%	50 to 100%
C[C@H](CS(=O)(=O)CC(F)(F)F)NC(=O)c1ccc(/C=C/C(c2ccc(F)c(C(F)(F)F)c2)C(C)(F)F)cc1C(F)(F)F (stereo partly drawn) [F135, 4-((E)-4,4-Difluoro-3-(4-fluoro-3-(trifluoromethyl)phenyl)pent-1-en-1-yl)-N—((R)-1-((2,2,2-trifluoroethyl)sulfonyl)propan-2-yl)-2-(trifluoromethyl)benzamide]	50 to 100%	50 to 100%
C[C@H](CS(=O)(=O)CC(F)(F)F)NC(=O)c1ccc(/C=C/C(c2cc(F)c(F)c(F)c2)C(C)(F)F)cc1C(F)(F)F (stereo partly drawn) [F136, 4-((E)-4,4-Difluoro-3-(3,4,5-trifluorophenyl)pent-1-en-1-yl)-N—((R)-1-((2,2,2-trifluoroethyl)sulfonyl)propan-2-yl)-2-(trifluoromethyl)benzamide]	50 to 100%	50 to 100%
C[C@H](CSCC(F)(F)F)NC(=O)c1ccc(/C=C/C(c2ccc(Cl)c(Cl)c2)C(F)(F)F)cc1Br (stereo partly drawn) [F137, 2-Bromo-4-((E)-3-(3,4-dichlorophenyl)-4,4,4-trifluorobut-1-en-1-yl)-N—((R)-1-((2,2,2-trifluoroethyl)thio)propan-2-yl)benzamide]	50 to 100%	50 to 100%
C[C@H](CSCC(F)(F)F)NC(=O)c1ccc(/C=C/C(c2cc(Cl)c(Cl)c(Cl)c2)C(F)(F)F)cc1 (stereo partly drawn) [FC74, 4-((E)-4,4,4-Trifluoro-3-(3,4,5-trichlorophenyl)but-1-en-1-yl)-N—((R)-1-((2,2,2-trifluoroethyl)thio)propan-2-yl)benzamide]	50 to 100%	50 to 100%
C[C@H](C[S+]([O-])CC(F)(F)F)NC(=O)c1ccc(/C=C/C(c2cc(Cl)c(Cl)c(Cl)c2)C(F)(F)F)cc1 (stereo partly drawn) [FC77, 4-((E)-4,4,4-Trifluoro-3-(3,4,5-trichlorophenyl)but-1-en-1-yl)-N-((2R)-1-((2,2,2-trifluoroethyl)sulfinyl)propan-2-yl)benzamide]	50 to 100%	50 to 100%
